Assay results as given in paper PMC6539903 (Molecules, 2019).

Assays:
HepG2 = test: MTT antiproliferation assay, HepG2; type: cell-based; conditions: Homo sapiens, 48 h, n = 3, read-out: IC50 ± SD HepG2
Description: (§1) MCF-7 (human breast cell line), HeLa (human cervical cell line), A549 (human lung cell line), HepG2 (human liver cell line), SW620 (human colorectal cell line) and a non-cancer cell line, NCM460 (Human colonic epithelial cells) were preserved at the State Key Laboratory of Pharmaceutical Biotechnology, Nanjing University (Nanjing, China).
(§2) The antiproliferative activity of the synthetic compounds against the SW620, MCF-7, HeLa, A549, HepG2, and NUM460 cell lines was evaluated by a colorimetric assay based on a modified standard (MTT). […] Thereafter, MTT (5 mg/mL in PBS) was added to each well and incubated for 4 h. 150 μL of DMSO was added to each well and shaken with a shaker. The absorbance (OD 570 nm) was read at 630 nm on an ELISA reader (ELx800, BioTek, montpelier, VT, USA). IC50 values for the compounds were calculated by comparison to DMSO treated control wells. Three replicate wells were used for each drug concentration. Each assay was performed three times.

COX-2 = molecular target: T1, COX-2 (Homo sapiens, UniProt P35354); test: COX-2 inhibition assay (COX-2 ELISA kit); type: biochemical; conditions: for Selectivity Index (SI) (COX-1 IC50/COX-2 IC50): in vitro COX-2 selectivity index; for IC50: mean of four determinations, read-out: IC50 ± SD COX-2
T1 construct: purchased Cayman Chemical 701180
T1 sequence (P35354 18-604): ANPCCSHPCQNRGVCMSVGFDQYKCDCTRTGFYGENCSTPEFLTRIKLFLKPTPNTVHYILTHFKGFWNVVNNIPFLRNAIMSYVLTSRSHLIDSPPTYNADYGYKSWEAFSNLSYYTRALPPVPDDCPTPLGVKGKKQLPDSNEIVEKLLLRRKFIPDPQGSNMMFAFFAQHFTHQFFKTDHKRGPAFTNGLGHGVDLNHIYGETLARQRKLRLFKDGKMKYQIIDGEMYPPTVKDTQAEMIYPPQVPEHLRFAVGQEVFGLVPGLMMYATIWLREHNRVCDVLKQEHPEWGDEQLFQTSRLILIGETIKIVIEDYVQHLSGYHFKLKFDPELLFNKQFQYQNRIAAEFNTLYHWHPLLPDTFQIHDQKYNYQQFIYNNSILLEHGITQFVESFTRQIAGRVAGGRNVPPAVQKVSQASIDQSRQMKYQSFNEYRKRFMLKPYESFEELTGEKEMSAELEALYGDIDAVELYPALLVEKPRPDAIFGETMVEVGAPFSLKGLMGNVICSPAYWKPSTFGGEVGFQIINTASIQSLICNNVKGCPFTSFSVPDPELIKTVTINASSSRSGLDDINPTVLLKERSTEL
Description: (§3) 3-(4,5-Dimethylthiazol-2-yl)-2,5-diphenyltetrazolium (MTT) were purchased from Beyotime Institute of Biotechnology (Haimen, China). Annexcin V-FITC cell apoptosis assay kit (catalog No.BA11100) was purchased from BIO-BOX (Nanjing, China). Fibronectin (#F1056) and laminin (#L2020) were purchased from Sigma-Aldrich (St. Louis, MO, USA).
(§4) Then 1 M HCl was added to the reaction mixture to stop the reaction, and one-tenth of the volume of saturated stannous chloride (50 mg/mL) was added. The reaction mixture was incubated at room temperature for 5 min, and PGF2 and PGH2 were produced.

HeLa = test: MTT antiproliferation assay, HeLa; type: cell-based; conditions: Homo sapiens, 48 h, n = 3, read-out: IC50 ± SD HeLa
Description: as §1, §2

SW620 cells = test: MTT antiproliferation assay, SW620; type: cell-based; conditions: Homo sapiens, SW-620, 48 h, n = 3, read-out: IC50 ± SD SW620
Description: as §1, §2

MCF-7 = test: MTT antiproliferation assay, MCF-7; type: cell-based; conditions: Homo sapiens, MCF7, 48 h, n = 3, read-out: IC50 ± SD MCF-7
Description: as §1, §2

COX-1 = molecular target: T2, COX-1 (Homo sapiens, UniProt P23219); test: COX-1 inhibition assay (COX-1 ELISA kit); type: biochemical; conditions: mean of four determinations; read-out: IC50 ± SD COX-1
T2 construct: purchased Cayman Chemical 701170
Description: as §3, §4

[1] = MTT cytotoxicity assay, non-cancer colon cells; type: cell-based; conditions: human, NCM460 colonic epithelial cells (non-cancer cell line), n = 3, non-cancer cell line, read-out: CC50 ± SD NUM460
Description: Besides, the MTT assay was performed on a non-cancer line NCM460 to assess the cytotoxicity of the test compound to normal colon cells.
as §1, §2

A549 = test: MTT antiproliferation assay, A549; type: cell-based; conditions: Homo sapiens, 48 h, n = 3, read-out: IC50 ± SD A549
Description: as §1, §2

T2 sequence (P23219 24-599): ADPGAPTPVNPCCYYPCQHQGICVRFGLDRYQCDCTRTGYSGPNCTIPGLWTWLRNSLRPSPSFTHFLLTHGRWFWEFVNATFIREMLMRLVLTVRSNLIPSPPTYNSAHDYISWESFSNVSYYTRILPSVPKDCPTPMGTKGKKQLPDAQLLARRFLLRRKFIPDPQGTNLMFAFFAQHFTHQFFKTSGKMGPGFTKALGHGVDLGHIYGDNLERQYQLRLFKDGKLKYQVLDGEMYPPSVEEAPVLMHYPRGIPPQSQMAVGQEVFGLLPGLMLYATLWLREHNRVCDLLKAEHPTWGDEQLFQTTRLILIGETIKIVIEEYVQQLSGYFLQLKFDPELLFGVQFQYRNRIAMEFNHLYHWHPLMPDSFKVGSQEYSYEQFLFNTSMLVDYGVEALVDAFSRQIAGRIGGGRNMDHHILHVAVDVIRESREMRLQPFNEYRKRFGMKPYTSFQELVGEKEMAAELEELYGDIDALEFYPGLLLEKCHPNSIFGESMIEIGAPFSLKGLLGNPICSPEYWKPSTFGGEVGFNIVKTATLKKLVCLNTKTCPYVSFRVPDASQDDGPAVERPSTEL

Structure (SMILES)	IC50 (HepG2) [µM]	Selectivity Index (SI) (COX-1 IC50/COX-2 IC50) (COX-2)	IC50 (COX-2) [µM]	IC50 (HeLa) [µM]	IC50 (SW620 cells) [µM]	IC50 (MCF-7) [µM]	IC50 (COX-1) [µM]	CC50 at 48 h [1] [µM]	IC50 (A549) [µM]	melting point [°C]
NS(=O)(=O)c1ccc(N2N=C(c3ccccc3F)CC2c2ccc3c(c2)OCO3)cc1 (centres unmarked) [Compound 4j, 4-(5-(Benzo[d][1,3]dioxol-5-yl)-3-(2-fluorophenyl)-4,5-dihydro-1H-pyrazol-1-yl)benzenesulfonamide]	11.8 ± 0.96	>33.15	1.81 ± 0.09	8.41 ± 0.29	4.54 ± 0.29	7.51 ± 0.57	> 60	137 ± 12.7	5.86 ± 0.36	180 to 181
NS(=O)(=O)c1ccc(N2N=C(c3ccc(F)cc3F)CC2c2ccc3c(c2)OCCO3)cc1 (centres unmarked) [Compound 4z, 4-(3-(2,4-Difluorophenyl)-5-(2,3-dihydrobenzo[b][1,4]dioxin-6-yl)-4,5-dihydro-1H-pyrazol-1-yl)benzenesulfonamide]	11.7 ± 0.86	>33.52	1.79 ± 0.13	8.34 ± 0.69	4.48 ± 0.24	7.42 ± 0.63	> 60	135 ± 9.63	5.78 ± 0.16	168 to 169
COc1cccc(C2=NN(c3ccc(S(N)(=O)=O)cc3)C(c3ccc4c(c3)OCO4)C2)c1 (centres unmarked) [Compound 4g, 4-(5-(Benzo[d][1,3]dioxol-5-yl)-3-(3-methoxyphenyl)-4,5-dihydro-1H-pyrazol-1-yl)benzenesulfonamide]	18.2 ± 1.15	>18.87	3.18 ± 0.26	14.6 ± 0.96	7.99 ± 0.56	12.7 ± 0.89	> 60	211 ± 18.2	9.42 ± 0.74	219 to 221
CCOc1ccc(C2=NN(c3ccc(S(N)(=O)=O)cc3)C(c3ccc4c(c3)OCO4)C2)cc1 (centres unmarked) [Compound 4c, 4-(5-(Benzo[d][1,3]dioxol-5-yl)-3-(4-ethoxyphenyl)-4,5-dihydro-1H-pyrazol-1-yl)benzenesulfonamide]	13.7 ± 0.93	10.45	2.02 ± 0.13	9.37 ± 0.9	5.07 ± 0.26	8.31 ± 0.67	21.11 ± 0.19	159 ± 11.4	6.93 ± 0.17	182 to 184
NS(=O)(=O)c1ccc(N2N=C(c3ccccc3F)CC2c2ccc3c(c2)OCCO3)cc1 (centres unmarked) [Compound 4y, 4-(5-(2,3-Dihydrobenzo[b][1,4]dioxin-6-yl)-3-(2-fluorophenyl)-4,5-dihydro-1H-pyrazol-1-yl)benzenesulfonamide]	15.4 ± 0.84	>27.40	2.19 ± 0.21	10.2 ± 0.72	5.51 ± 0.37	8.96 ± 0.74	> 60	178 ± 12.7	7.83 ± 0.58	191 to 192
NS(=O)(=O)c1ccc(N2N=C(c3cccc(F)c3)CC2c2ccc3c(c2)OCCO3)cc1 (centres unmarked) [Compound 4v, 4-(5-(2,3-Dihydrobenzo[b][1,4]dioxin-6-yl)-3-(3-fluorophenyl)-4,5-dihydro-1H-pyrazol-1-yl)benzenesulfonamide]	12.9 ± 0.99	>31.09	1.93 ± 0.08	8.95 ± 0.39	4.84 ± 0.27	7.96 ± 0.55	> 60	150 ± 6.94	6.47 ± 0.29	200 to 201
Cc1cc(C2=NN(c3ccc(S(N)(=O)=O)cc3)C(c3ccc4c(c3)OCCO4)C2)ccc1F (centres unmarked) [Compound 4t, 4-(5-(2,3-Dihydrobenzo[b][1,4]dioxin-6-yl)-3-(4-fluoro-3-methylphenyl)-4,5-dihydro-1H-pyrazol-1-yl)benzenesulfonamide]	8.94 ± 0.67	>40.54	1.48 ± 0.02	6.97 ± 0.51	3.74 ± 0.12	6.31 ± 0.39	> 60	104 ± 4.74	4.26 ± 0.19	159 to 161
NS(=O)(=O)c1ccc(N2N=C(c3cc(F)cc(F)c3)CC2c2ccc3c(c2)OCCO3)cc1 (centres unmarked) [Compound 4w, 4-(3-(3,5-Difluorophenyl)-5-(2,3-dihydrobenzo[b][1,4]dioxin-6-yl)-4,5-dihydro-1H-pyrazol-1-yl)benzenesulfonamide]	9.08 ± 0.71	36.44	1.51 ± 0.09	7.04 ± 0.47	3.78 ± 0.22	6.37 ± 0.39	55.02 ± 0.36	105 ± 8.87	4.34 ± 0.28	182 to 183
NS(=O)(=O)c1ccc(N2N=C(c3ccccc3)CC2c2ccc3c(c2)OCCO3)cc1 (centres unmarked) [Compound 4k, 4-(5-(2,3-Dihydrobenzo[b][1,4]dioxin-6-yl)-3-phenyl-4,5-dihydro-1H-pyrazol-1-yl)benzenesulfonamide]	11.9 ± 0.91	>32.97	1.82 ± 0.16	8.44 ± 0.48	4.56 ± 0.14	7.54 ± 0.42	> 60	138 ± 11	5.92 ± 0.31	156 to 157
NS(=O)(=O)c1ccc(N2N=C(c3ccc(I)cc3)CC2c2ccc3c(c2)OCO3)cc1 (centres unmarked) [Compound 4d, 4-(5-(Benzo[d][1,3]dioxol-5-yl)-3-(4-iodophenyl)-4,5-dihydro-1H-pyrazol-1-yl)benzenesulfonamide]	6.42 ± 0.25	21.53	1.2 ± 0.05	5.71 ± 0.47	3.04 ± 0.17	5.26 ± 0.42	25.84 ± 0.21	74.5 ± 5.23	2.86 ± 0.06	212 to 214
NS(=O)(=O)c1ccc(N2N=C(c3cccc(Cl)c3Cl)CC2c2ccc3c(c2)OCCO3)cc1 (centres unmarked) [Compound 4x, 4-(3-(2,3-Dichlorophenyl)-5-(2,3-dihydrobenzo[b][1,4]dioxin-6-yl)-4,5-dihydro-1H-pyrazol-1-yl)benzenesulfonamide]										171 to 173
